Laboratory results reported in patent US12558399B2, “Isocyclosporin A for topical treatment of ocular diseases” (DOMPE' FARMACEUTICI S.P.A., priority 2021, dated 2026).

Key:
TRPV3 = molecular target: T1, TRPV3 (Homo sapiens, UniProt Q8NET8); experiment: FLIPR assay, TRPV3 inhibition; format: cell-based
T1 sequence (Q8NET8 1-790): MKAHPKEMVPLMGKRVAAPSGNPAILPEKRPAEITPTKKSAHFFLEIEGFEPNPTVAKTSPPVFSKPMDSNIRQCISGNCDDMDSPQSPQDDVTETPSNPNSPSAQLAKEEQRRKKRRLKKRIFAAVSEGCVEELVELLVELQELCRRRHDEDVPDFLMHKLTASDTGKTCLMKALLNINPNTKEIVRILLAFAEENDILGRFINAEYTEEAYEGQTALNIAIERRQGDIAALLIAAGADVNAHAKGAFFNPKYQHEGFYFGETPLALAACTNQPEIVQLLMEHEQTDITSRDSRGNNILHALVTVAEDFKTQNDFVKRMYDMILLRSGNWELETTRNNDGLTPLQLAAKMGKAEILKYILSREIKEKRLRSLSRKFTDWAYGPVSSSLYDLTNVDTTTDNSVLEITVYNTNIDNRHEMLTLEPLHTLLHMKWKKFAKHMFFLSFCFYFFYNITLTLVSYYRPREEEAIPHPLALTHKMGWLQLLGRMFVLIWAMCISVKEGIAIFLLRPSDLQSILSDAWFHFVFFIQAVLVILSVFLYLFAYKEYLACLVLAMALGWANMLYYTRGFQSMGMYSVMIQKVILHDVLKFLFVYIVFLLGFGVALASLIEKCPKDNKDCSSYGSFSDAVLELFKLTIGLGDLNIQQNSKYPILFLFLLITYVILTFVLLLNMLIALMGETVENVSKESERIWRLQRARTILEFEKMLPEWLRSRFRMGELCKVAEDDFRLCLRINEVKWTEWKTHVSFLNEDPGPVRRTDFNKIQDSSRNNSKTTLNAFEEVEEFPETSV
Source text: The FLIPR assay is used to screen ion channel targets using membrane permeable fluorescent dyes. In particular, ion channel targets with significant Ca permeability, produce an increase in intracellular calcium that can be measured using calcium-sensitive dyes (Michelle R. Arkin et al. FLIPR™ Assays for GPCR and Ion Channel Targets. Assay Guidance Manual [Internet]. Bethesda (MD): Eli Lilly & Company and the National Center for Advancing Translational Sciences; 2004).
(§1) TRPV3 is an ionic channel that plays an important role in itching and inflammation, which are two characterizing aspects of ocular surface diseases such as VKC and AKC.
(§2) In details, human TRP cells are trypsinized, counted and seeded in black, clear-bottomed 96 well plates at a density of 50,000 cells per well and incubated overnight. Next day, media is removed from cell plates and 25 μl assay buffer is added. Red membrane potential or Calcium 5 dye solution (10 μl) is added to the wells and incubated at 37° C. for 1 hour. TRPV3, TRPML2 and TRPC4 are tested using the membrane potential dye.
(§3) Dye solution is made up in assay buffer. Compound dilutions are performed in 100% DMSO or dH2O then transferred to intermediate dilutions (5% DMSO/assay buffer or 5% dH2O/assay buffer) for a short time (<10 minutes) just before adding to the cell plate.
The plates are placed in the FLIPR and fluorescence monitored every 1.52 seconds. After 20 seconds 10 μl of the appropriate standard agonist is added and the fluorescence monitored for 5 minutes at ex/em: 488 nm/510-570 nm.
Reference agonists and antagonists have been tested against each channel to check that the value is within the acceptable range in order to validate the assays.
Percentage activation and inhibition values of the test compound and reference compounds has been evaluated.

TRPML2 = molecular target: T2, TRPML2 (Homo sapiens, UniProt Q8IZK6); experiment: FLIPR assay, TRPML2 inhibition; format: cell-based
T2 sequence (Q8IZK6 1-566): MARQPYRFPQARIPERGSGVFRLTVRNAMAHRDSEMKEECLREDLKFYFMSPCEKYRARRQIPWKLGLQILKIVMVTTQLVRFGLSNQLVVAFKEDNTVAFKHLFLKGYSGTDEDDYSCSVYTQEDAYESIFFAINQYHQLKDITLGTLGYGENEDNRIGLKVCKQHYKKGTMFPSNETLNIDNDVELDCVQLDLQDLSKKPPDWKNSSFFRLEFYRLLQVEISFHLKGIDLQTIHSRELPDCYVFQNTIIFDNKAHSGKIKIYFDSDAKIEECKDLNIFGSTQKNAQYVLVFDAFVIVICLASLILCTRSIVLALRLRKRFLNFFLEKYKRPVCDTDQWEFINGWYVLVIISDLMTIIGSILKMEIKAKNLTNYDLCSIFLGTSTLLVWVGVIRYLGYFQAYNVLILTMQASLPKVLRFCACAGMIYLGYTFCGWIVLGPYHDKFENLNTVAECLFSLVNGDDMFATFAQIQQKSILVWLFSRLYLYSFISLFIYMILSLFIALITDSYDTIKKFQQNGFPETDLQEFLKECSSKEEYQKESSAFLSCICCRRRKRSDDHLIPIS
Procedure: The FLIPR assay is used to screen ion channel targets using membrane permeable fluorescent dyes. […]
as §2, §3

eye of healthy rabbits = details: rabbit, in vivo
[1] = mouse, in vivo
TRPC4 = molecular target: T3, TRPC4 (Homo sapiens, UniProt Q9UBN4); experiment: FLIPR assay, TRPC4 activation; format: cell-based; details: 30 μM
T3 sequence (Q9UBN4 1-977): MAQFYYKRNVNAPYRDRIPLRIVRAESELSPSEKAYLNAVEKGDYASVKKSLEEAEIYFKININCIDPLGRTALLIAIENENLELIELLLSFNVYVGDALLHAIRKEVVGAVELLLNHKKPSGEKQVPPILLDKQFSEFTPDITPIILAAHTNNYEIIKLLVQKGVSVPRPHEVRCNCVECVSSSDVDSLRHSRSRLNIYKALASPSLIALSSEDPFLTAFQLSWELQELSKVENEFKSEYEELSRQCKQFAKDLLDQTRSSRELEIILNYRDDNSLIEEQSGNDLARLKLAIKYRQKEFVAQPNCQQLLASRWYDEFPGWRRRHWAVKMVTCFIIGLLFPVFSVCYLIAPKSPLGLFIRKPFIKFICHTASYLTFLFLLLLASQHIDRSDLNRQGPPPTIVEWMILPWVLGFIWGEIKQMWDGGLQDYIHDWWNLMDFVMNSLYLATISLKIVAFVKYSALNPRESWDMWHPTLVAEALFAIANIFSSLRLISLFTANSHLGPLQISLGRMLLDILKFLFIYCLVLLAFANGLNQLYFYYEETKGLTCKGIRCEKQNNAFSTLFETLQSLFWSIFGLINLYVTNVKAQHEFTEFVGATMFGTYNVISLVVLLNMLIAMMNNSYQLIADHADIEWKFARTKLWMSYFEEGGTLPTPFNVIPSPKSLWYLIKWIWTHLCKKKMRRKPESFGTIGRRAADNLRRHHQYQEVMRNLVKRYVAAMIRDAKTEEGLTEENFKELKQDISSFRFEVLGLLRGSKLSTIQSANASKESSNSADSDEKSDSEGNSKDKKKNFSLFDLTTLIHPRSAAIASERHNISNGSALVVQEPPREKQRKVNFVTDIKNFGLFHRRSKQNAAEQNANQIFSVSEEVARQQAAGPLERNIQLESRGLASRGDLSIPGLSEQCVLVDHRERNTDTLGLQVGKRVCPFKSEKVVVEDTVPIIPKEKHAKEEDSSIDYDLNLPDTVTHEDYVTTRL
Procedure: The FLIPR assay is used to screen ion channel targets using membrane permeable fluorescent dyes.
as §1, §2, §3
After 20 seconds IsoCsA, CsA or standard agonist are added to the wells and the fluorescence monitored for 5 minutes at ex./em.

tear secretion = experiment: Tear secretion by modified Schirmer test in scopolamine-treated mice; format: in vivo; details: mouse, day 22 and day 25, compared between treated groups
Procedure: In details, 15 mice (N=5 per group) were randomly assigned at baseline to 3 groups and dry eye was induced by treatment with a subcutaneous injection protocol of 0.5 mg/0.2 ml scopolamine hydrobromide, as previously described (Yeh S et al. Invest Ophthalmol Vis Sci, 2003, 44 (1): 124-9). […] In the treatment groups, ten microliters of the test formulations were instilled in each mouse three times a day in both eyes starting at Day 1 after the first scopolamine injection for 25 days. The treatments were encoded, and the group allocation was blinded to the technician administering the treatment, and to the researcher assessing the outcome of the experiment. Group identification was uncovered at the end of the analysis. Tear secretion was also measured in all animals by modified Schirmer test at day 22 and at day 25, as described in Rossi S. et al. Arch Ital Biol. 2012 March; 150 (1): 15-21.

[2] = 56 μM, reference agonist, considered equal to 0%
[3] = 2 μM, agonist, considered equal to 0%

Molecule: NCCOB(c1ccccc1)c1ccccc1 [2-APB, 2-aminoetoxy diphenyl borate]
- TRPV3 Inhibition % Mean (TRPV3; [2]): 0%
- TRPV3 Inhibition % n = 1 (TRPV3; [2]): 0%
- TRPV3 Inhibition % n = 2 (TRPV3; [2]): 0%

Molecule: [Ca+2].[Cl-].[Cl-] [CaCl2]
- TRPML2 Inhibition % Mean (TRPML2; [3]): 0%
- TRPML2 Inhibition % n = 1 (TRPML2; [3]): 0%
- TRPML2 Inhibition % n = 2 (TRPML2; [3]): 0%

Molecule: [Gd+3] [Gd3, Gadolinium]
- TRPML2 Inhibition % Mean (TRPML2; 4 mM, antagonist): 89.6%
- TRPML2 Inhibition % n = 1 (TRPML2; 4 mM, antagonist): 88.2%
- TRPML2 Inhibition % n = 2 (TRPML2; 4 mM, antagonist): 90.9%

Molecule: N.N.N.N.N.N.N.N.N.N.N.N.N.N.[Cl-].[Cl-].[Cl-].[Cl-].[Cl-].[Cl-].[O-2].[O-2].[Ru+3].[Ru+3].[Ru+4] [RR, ruthenium red]
- TRPV3 Inhibition % Mean (TRPV3; 100 μM, reference antagonist): 91.7%
- TRPV3 Inhibition % n = 1 (TRPV3; 100 μM, reference antagonist): 90.2%
- TRPV3 Inhibition % n = 2 (TRPV3; 100 μM, reference antagonist): 93.2%

Molecule: isocyclosporin A
- frequency of the winking (eye of healthy rabbits): 5±1
- TRPML2 Inhibition % Mean (TRPML2; 30 μM): 71.2%
- TRPML2 Inhibition % n = 1 (TRPML2; 30 μM): 63.9%
- TRPML2 Inhibition % n = 2 (TRPML2; 30 μM): 78.5%
- ability to antagonize TRPML2 in comparison with cyclosporin A (TRPML2; 30 μM): more than double
- mean level in Conjunctiva [1]: 20 ± 7 ng/mg
- mean level in Cornea [1]: 15 ± 5 ng/mg
- mean level in Intraocular tissues (combined) [1]: 2 ± 1 ng/mg
- variability of tissue levels within different animals with the same treatment [1]: significantly lower variability
- effect on activation of TRPC4 (TRPC4): does not have any effect on activation of this channel
- TRPV3 Inhibition % Mean (TRPV3; 30 μM): 60.1%
- TRPV3 Inhibition % n = 1 (TRPV3; 30 μM): 63.7%
- TRPV3 Inhibition % n = 2 (TRPV3; 30 μM): 56.5%
- ability to antagonize TRPV3 relative to cyclosporin A (TRPV3; 30 μM): more than 4 fold
- tear secretion (tear secretion): significantly higher levels
